# Paper PMC12155096 (International Journal of Molecular Sciences, 2025)
# Structures can show the parent of a compound that is named as a salt. Where two headings read alike, the source gives them in different places.
# Tests used:
# human CYP2C9 [1] = target: T1, human CYP2C9 (Homo sapiens, UniProt P11712); assay: biochemical
# human CYP2C19 [2] = target: T2, human CYP2C19 (Homo sapiens, UniProt P33261); assay: biochemical; settings: for AC50: CYP2C19 AC50 (half-maximal activity concentration)
# human CYP1A2 = target: T3, human CYP1A2 (Homo sapiens, UniProt P05177)
# T3 sequence (P05177 1-516): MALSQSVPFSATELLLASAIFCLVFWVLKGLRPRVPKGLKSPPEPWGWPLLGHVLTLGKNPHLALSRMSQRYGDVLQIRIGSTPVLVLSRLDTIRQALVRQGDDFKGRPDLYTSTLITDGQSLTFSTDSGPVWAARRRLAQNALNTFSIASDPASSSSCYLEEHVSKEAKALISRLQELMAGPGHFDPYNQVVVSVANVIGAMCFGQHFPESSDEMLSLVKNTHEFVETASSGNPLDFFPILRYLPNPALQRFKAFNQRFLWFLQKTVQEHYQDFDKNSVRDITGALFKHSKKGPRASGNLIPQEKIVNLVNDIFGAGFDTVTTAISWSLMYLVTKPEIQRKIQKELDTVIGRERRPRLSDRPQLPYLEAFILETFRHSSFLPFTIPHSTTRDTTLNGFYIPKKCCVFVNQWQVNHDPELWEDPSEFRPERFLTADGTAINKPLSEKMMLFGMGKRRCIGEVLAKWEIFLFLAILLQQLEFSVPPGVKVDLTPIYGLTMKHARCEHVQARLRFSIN
# human CYP2C9 [3] = target: T1, human CYP2C9
# human CYP2C19 [4] = target: T2, human CYP2C19
# human CYP2D6 = human CYP2D6 (Homo sapiens, UniProt P10635)
# [5] = CYP2C9 IC50 (half-maximal inhibitory concentration)
# [6] = CYP2C9 AC50 (half-maximal activity concentration)
# [7] = CYP2C19 IC50 (half-maximal inhibitory concentration)
# T2 sequence (P33261 whole entry): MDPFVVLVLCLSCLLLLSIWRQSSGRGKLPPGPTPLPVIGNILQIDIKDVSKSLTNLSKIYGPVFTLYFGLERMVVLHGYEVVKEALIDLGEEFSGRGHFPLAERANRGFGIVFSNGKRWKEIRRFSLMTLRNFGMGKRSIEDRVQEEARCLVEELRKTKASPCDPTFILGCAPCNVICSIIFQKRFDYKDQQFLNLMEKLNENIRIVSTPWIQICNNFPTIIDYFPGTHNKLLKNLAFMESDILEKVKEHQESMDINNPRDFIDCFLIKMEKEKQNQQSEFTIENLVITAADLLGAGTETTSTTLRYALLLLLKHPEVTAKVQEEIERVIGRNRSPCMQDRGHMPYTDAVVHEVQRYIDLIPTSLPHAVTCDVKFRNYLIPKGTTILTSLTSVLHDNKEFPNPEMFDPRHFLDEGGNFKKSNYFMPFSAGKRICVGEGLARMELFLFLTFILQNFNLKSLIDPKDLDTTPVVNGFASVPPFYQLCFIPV
# T1 sequence (P11712 whole entry): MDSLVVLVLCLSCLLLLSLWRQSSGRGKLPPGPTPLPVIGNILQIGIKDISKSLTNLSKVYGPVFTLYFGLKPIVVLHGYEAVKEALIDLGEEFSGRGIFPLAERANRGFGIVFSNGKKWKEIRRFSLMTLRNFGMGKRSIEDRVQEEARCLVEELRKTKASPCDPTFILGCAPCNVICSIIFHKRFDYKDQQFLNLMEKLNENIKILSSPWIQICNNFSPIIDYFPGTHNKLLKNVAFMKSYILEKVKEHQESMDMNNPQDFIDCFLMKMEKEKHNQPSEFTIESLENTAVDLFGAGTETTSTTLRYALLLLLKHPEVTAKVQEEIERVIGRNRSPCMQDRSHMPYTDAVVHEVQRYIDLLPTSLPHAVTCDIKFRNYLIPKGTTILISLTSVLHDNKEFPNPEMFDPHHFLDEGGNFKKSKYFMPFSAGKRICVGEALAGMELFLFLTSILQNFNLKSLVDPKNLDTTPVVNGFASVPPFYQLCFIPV
# Sequence of human CYP2D6 (P10635 whole entry): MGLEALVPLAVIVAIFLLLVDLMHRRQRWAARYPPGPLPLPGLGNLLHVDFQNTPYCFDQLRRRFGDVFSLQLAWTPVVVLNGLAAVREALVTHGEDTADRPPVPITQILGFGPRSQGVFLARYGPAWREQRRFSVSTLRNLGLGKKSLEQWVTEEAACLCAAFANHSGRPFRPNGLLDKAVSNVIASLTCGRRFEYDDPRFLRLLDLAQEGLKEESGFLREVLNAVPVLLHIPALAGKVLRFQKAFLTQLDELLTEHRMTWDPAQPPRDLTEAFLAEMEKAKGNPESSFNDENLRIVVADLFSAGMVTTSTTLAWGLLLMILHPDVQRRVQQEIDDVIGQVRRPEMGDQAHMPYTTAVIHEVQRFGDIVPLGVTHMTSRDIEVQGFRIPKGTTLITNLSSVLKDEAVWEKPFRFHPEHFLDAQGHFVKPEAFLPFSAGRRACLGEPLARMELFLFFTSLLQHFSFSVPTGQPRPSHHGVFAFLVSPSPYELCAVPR
compound,measurement,setting,value
"CCOC(=O)O[C@]1(C(=O)OCCl)CC[C@H]2[C@@H]3CCC4=CC(=O)C=C[C@]4(C)[C@H]3[C@@H](O)C[C@@]21C [Loteprednol etabonate, reference compound]",IC50,human CYP2C9 [1]; [5],29.2 µM
Cc1nc2ccccc2c(=O)n1-c1ccccc1Cl [Mecloqualone],AC50,human CYP2C19 [2],2.88 µM
same,AC50,human CYP2C9 [1]; [6],37.7 µM
COCC(=O)N(c1c(C)cccc1C)C(C)C(=O)OC (stereo not drawn) [Metalaxyl],AC50,human CYP2C19 [2],38.4 µM
same,AC50,human CYP2C9 [1]; [6],59.1 µM
CN1CC[C@]23c4c5ccc(O)c4O[C@H]2[C@@H](O)C=C[C@H]3[C@H]1C5 [Morphine sulfate pentahydrate],CYP1A2 AC50 (half-maximal activity concentration),human CYP1A2,Inactive
same,CYP2C9 AC50 (half-maximal activity concentration),human CYP2C9 [3],Inactive
same,CYP2C19 AC50 (half-maximal activity concentration),human CYP2C19 [4],Inactive
Cc1ccccc1C(=O)Nc1ccc(C(=O)N2CCCC(N(C)C)c3ccccc32)cc1 (stereo not drawn) [Mozavaptan],CYP2C9 Efficacy (in parenthesis),human CYP2C9 [3]; human,26.02 ± 12.23 (-35 ± 0) %
same,IC50,human CYP2C9 [1]; [5],26 µM
CC(C)[C@H]1CC[C@H](C(=O)N[C@H](Cc2ccccc2)C(=O)O)CC1 [Nateglinide],AC50,human CYP2C9 [1]; [6],14 µM
O=C(OCC(COC(=O)c1cccnc1)(COC(=O)c1cccnc1)COC(=O)c1cccnc1)c1cccnc1 [Niceritrol],IC50,human CYP2C9 [1],3.44 µM
CCOC(=O)C1=C(C)NC(C)=C(C(=O)OC)C1c1cccc([N+](=O)[O-])c1 (stereo not drawn) [Nitrendipine],IC50,human CYP2C19 [2]; [7],1.4 µM
same,IC50,human CYP2C9 [1]; [5],0.88 µM
CC(=O)Oc1ccc(C2(c3ccc(OC(C)=O)cc3)C(=O)Nc3ccccc32)cc1 [Oxyphenisatin acetate],AC50,human CYP2C19 [2],11.9 µM
same,AC50,human CYP2C9 [1]; [6],5.5 µM
O=c1[nH]c2ccccc2n1C1CCN(CCCC(c2ccc(F)cc2)c2ccc(F)cc2)CC1 [Pimozide],CYP1A2 AC50 (half-maximal activity concentration),human CYP1A2,Inactive
CC(C)(C)C(=O)OCOC(=O)[C@@H]1N2C(=O)[C@@H](NC(=O)[C@H](N)c3ccccc3)[C@H]2SC1(C)C [Pivampicillin],IC50,human CYP2C9 [1]; [5],23.6 µM
COc1cc([C@@H]2c3cc4c(cc3[C@H](O)[C@H]3COC(=O)[C@H]23)OCO4)cc(OC)c1OC [Podofilox],IC50,human CYP2C19 [2]; [7],3.71 µM
same,IC50,human CYP2C9 [1],1.97 µM
CN1C(CSCC(F)(F)F)Nc2cc(Cl)c(S(N)(=O)=O)cc2S1(=O)=O (stereo not drawn) [Polythiazide],AC50,human CYP2C19 [2],22 µM
same,AC50,human CYP2C9 [1]; [6],14.9 µM
CCCOC(=O)Cc1ccc(OCC(=O)N(CC)CC)c(OC)c1 [Propanidid],AC50,human CYP2C9 [1]; [6],21.2 µM
CCCOC(C(=O)OC1CCN(C)CC1)(c1ccccc1)c1ccccc1.Cl [Propiverine hydrochloride],IC50,human CYP2D6,6.81 µM
COc1ccc(S(=O)(=O)N2c3ccc(Cl)cc3[C@](O)(c3ccccc3Cl)[C@@H]2C(=O)N2CCC[C@H]2C(N)=O)cc1OC [Relcovaptan],IC50,human CYP2C9 [1],27.7 ± 9.09 µM
CN(CCOc1ccc(CC2SC(=O)NC2=O)cc1)c1ccccn1 (stereo not drawn) [Rosiglitazone maleate],CYP2C19 AC50 (half-maximal activity concentration),human CYP2C19 [4],Inconclusive inhibitor
CCCc1ccc(OCC(=O)N2CCN(C(=O)COc3ccc(CCC)cc3OC)CC2)c(OC)c1 [Simetride],IC50,human CYP2C19 [2],17 ± 19.1 µM
same,IC50,human CYP2C9 [1],6.41 ± 6.45 µM
CC(=O)N(c1onc(C)c1C)S(=O)(=O)c1ccc(N)cc1 [Sulfisoxazole acetal],AC50,human CYP2C9 [1]; [6],25.8 µM
O=C1OC(c2ccc(O)c(S(=O)(=O)O)c2)(c2ccc(O)c(S(=O)(=O)O)c2)c2c(Br)c(Br)c(Br)c(Br)c21 [Sulfobromophthalein],AC50,human CYP2C9 [1]; [6],43.6 µM
CCC(=O)O[C@H]1CC[C@H]2[C@@H]3CCC4=CC(=O)CC[C@]4(C)[C@H]3CC[C@]12C [Testosterone propionate],AC50,human CYP2C19 [2],26 µM
same,AC50,human CYP2C9 [1]; [6],30.9 µM
CCCC(CCC)C(=O)O [Valproic acid],AC50,human CYP2C9 [1]; [6],47.3 µM
CCC1=C[C@@H]2CN(C1)Cc1c([nH]c3ccccc13)[C@@](C(=O)OC)(c1cc3c(cc1OC)N(C)[C@H]1[C@@](O)(C(=O)OC)[C@H](OC(C)=O)[C@]4(CC)C=CCN5CC[C@]31[C@@H]54)C2 [Vinorelbine tartrate],IC50,human CYP2C9 [1]; [5],21 µM
O=C(O)Cn1c(=O)n(Cc2ccc(Br)cc2F)c(=O)c2ccc(Cl)cc21 [Zenarestat],AC50,human CYP2C9 [1],14.4 ± 0.97 µM
CC1(C)C(C=C(Cl)Cl)C1C(=O)OC(C#N)c1cccc(Oc2ccccc2)c1 (stereo not drawn) [alpha-Cypermethrin],AC50,human CYP2C19 [2],6.44 µM
same,AC50,human CYP2C9 [1]; [6],3.56 µM
"COCCCC/C(=N\OCCN)c1ccc(C(F)(F)F)cc1 [fluvoxamine, reference compound]",IC50,human CYP1A2; human,200 nM
Cresyl diphenyl phosphate,AC50,human CYP1A2,8.9 µM
same,AC50,human CYP2C9 [3],6.19 µM
same,CYP2D6 AC50 (half-maximal activity concentration),human CYP2D6,Inactive
same,AC50,human CYP2C19 [4],4.18 µM
